{
  "source": "patent US9656981B2",
  "about": "“Peripherally-acting cannabinoid receptor agonists for chronic pain” (The Regents of the University of California, priority 2012, dated 2017)",
  "key": {"[1]": {"molecular_target": "CB2R (Homo sapiens, UniProt P34972)", "sequence (P34972 whole entry)": "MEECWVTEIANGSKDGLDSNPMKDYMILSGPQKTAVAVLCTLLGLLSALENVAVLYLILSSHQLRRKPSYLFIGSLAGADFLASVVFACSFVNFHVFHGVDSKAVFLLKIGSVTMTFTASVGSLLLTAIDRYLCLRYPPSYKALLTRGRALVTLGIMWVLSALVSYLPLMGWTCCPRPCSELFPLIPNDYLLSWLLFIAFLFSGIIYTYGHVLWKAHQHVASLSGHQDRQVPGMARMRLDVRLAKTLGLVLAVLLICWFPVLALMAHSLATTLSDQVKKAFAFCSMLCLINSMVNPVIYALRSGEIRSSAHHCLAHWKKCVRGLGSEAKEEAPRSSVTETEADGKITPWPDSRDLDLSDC", "experiment": "CB2R radioligand displacement binding assay (CP55940 radioligand)", "conditions": "Table 1; CP55940 radioligand; read-out: CB2_KI_CP"}, "[2]": {"test_system": "sciatic nerve entrapment (SNE) neuropathy", "experiment": "SNE neuropathy, mechanical allodynia (von Frey)", "assay_type": "in vivo, rat", "procedure": "The effectiveness of CBR agonists was tested for alleviating the painful symptoms of neuropathy induced by unilateral sciatic nerve entrapment (SNE)^131. The peripheral neuropathy induced by SNE is highly comparative to that of chronic constriction injury (CCI), which uses chromic gut suture materials instead of polyethylene cuffs^132. […] This increased excitability is at least in part attributable to injury-induced post-transcriptional transport of the voltage-gated sodium channel 1.8 (NaV1.8) mRNA, axonal accumulation of NaV1.8 mRNA, and its local protein translation leading to the increased NaV1.8 functional expression in injured nerve^136. The hyperexcitability and ectopic burst discharge of primary sensory neurons are widely considered to be the major contributors to pain symptomatology of peripheral neuropathy models. The SNE-induced mechanical allodynia effectively models the most common complaint of human neuropathy patients of dynamic mechanical allodynia. Behavioral measurements of mechanical sensitivity were conducted before and after induction of SNE as follows:\n(§1) Rats are placed in a plastic-walled cage (10×20×13 cm) with a metal mesh floor (0.6×0.6 cm holes) and allowed to acclimate for 10 min. The amount of pressure (g) needed to evoke a hindpaw withdrawal response is measured 4 times on each paw separated by 30-s intervals using a von Frey-type digital meter (Model 1601C, IITC Instr.). Results of 4 tests/session are averaged for each paw."}, "[3]": {"test_system": "rats", "experiment": "Hypothermia test of the tetrad", "assay_type": "in vivo, rat", "procedure": "Rats are acclimated to a plastic restrainer apparatus (Model RTV-180 Braintree Scientific Inc.) on the day of testing by placing them in the restrainer twice for 5 min separated by 20 min. Baseline core temperature is taken before treatment, and the rectal temperature is measured again at various times after injection of the CB1R ligands."}, "[4]": {"test_system": "rats", "experiment": "Tail-flick test of the tetrad", "assay_type": "in vivo, rat", "conditions": "0.3 mg/kg, intraperitoneal", "excerpt": "A modified Hargreaves apparatus (Model 390, IITC Instr.) is used to measure tail-flick latency (TFL). Radiant heat is directed to a point 3 cm from the tail tip and the TFL observed and timed with a photo cell counter. The intensity of the radiant heat is adjusted for a baseline TFL of approximately 5-7 seconds for naïve rats, with a 25 s cutoff set to avoid tissue damage (see FIG. 3)."}, "[5]": {"molecular_target": "CB1R (Homo sapiens, UniProt P21554)", "sequence (P21554 whole entry)": "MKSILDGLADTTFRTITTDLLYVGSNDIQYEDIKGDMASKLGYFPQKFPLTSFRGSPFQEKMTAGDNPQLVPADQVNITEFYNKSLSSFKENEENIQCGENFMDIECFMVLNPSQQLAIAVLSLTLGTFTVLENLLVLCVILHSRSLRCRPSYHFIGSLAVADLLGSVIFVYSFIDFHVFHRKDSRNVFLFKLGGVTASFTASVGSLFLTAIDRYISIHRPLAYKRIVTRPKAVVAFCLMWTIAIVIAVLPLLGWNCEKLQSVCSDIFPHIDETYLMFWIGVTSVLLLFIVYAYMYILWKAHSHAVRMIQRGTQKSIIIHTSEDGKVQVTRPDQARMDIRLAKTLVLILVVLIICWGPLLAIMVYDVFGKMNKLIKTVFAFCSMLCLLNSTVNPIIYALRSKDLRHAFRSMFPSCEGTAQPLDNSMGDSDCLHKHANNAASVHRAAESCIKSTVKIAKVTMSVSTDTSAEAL", "experiment": "CB1R radioligand displacement binding assay (CP55940 radioligand)", "procedure": "Heterologous competition binding assays were performed to calculate receptor affinities. Unlabeled SR141716 or SR144528 were used as appropriate controls for non-specific binding (NSB) in the assay. Calculation of the equilibrium dissociation constant (Ki) was performed using the Cheng-Prusoff equation."}, "[6]": {"test_system": "CFA-induced mechanical allodynia", "experiment": "CFA chronic inflammation, mechanical allodynia", "assay_type": "in vivo, rat", "conditions": "systemic injection", "procedure": "as §1\nCompounds were tested in a well-established model of chronic inflammation. In this model, unilateral intraplantar injection of complete Freund's adjuvant (CFA) leads to long-lasting symptoms of mechanical allodynia and thermal hyperalgesia of the affected hindpaw, which is alleviated by local, […] administration of CB1R ligands^125, 155. […] This is consistent with the higher CB1R affinity of our novel compound 13339-145-35 (Compound 9, see Table 1) compared with the AstraZeneca AZ11713908 compound^125."}, "[7]": {"experiment": "Pharmacokinetic profiling: plasma, CSF and brain levels by LC-MS/MS", "assay_type": "in vivo, rat", "procedure": "Pharmacokinetic profiling of novel compounds is prerequisite to their clinical development. […] Plasma, cerebrospinal fluid (CSF), and brain samples were analyzed by LC-MS/MS and quantified using standard curves prepared from appropriate drug dilutions in fluids obtained from untreated animals.\nMeasurements of brain levels are a must for putative peripherally-restricted analogs. Total brain levels include drug partitioned into brain lipids+unbound drug in equilibrium with extracellular fluid. Therefore, cerebrospinal fluid (CSF)/plasma ratios are considered to be more precise estimates of brain penetration of a given drug because of the continuity of CSF with extracellular space^174. However, both measures are needed to confirm minimal CNS access and to compare with other reported peripherally-restricted CB1R ligands^110, 111. […] Plasma, brain and CSF samples were obtained at ˜75 min after PrNMI administration. Data presented as mean±SEM, n=3 rats."}, "[8]": {"test_system": "rats", "experiment": "Catalepsy (ring) test of the tetrad", "assay_type": "in vivo, rat", "procedure": "Catalepsy (ring) test. Catalepsy was determined with a ring immobility test^154, modified for rats^139, 153. Rats are placed with their forepaws on a horizontal metal ring (12 cm diameter) at a height that allows their hindpaws to just touch the bench surface. Immobility is recorded as the time for the rat to move off the ring with a 100 s cutoff. Rats are tested before vehicle/drug injections and again at various times after injection."}, "[9]": {"molecular_target": "human CB1R (hCB1R) (Homo sapiens, UniProt P21554)", "sequence (P21554 whole entry)": "as above", "experiment": "human CB1R (hCB1R) calcium flux assay", "assay_type": "cell-based", "conditions": "Table 1; read-out: Ca Flux % Emax", "excerpt": "Compounds were first screened for: a) CB1R and CB2R binding, b) CB1R agonist activity using the human CB1R (hCB1R) calcium flux assay, and c) BBB permeability using the Madin-Darby canine kidney (MDCK-MDR1) cell line assay.\nThe calcium 3 dye assays were run according to manufacturer's specifications (http://www.moleculardevices.com/Products/Assay-Kits/GPCRs/FLIPR-Calcium.html) and as reported in our previous publications^112,113. Briefly, wells of black clear-bottom 96-well tissue culture-treated plates are seeded with 20,000 cells the afternoon before assay. The day of assay, the cells are incubated with the Ca^2+ indicator dye for 1 hr @ 37° C. For antagonist assays, the test compound is preincubated with the cells during the last 10 min of the dye incubation. Basal or unstimulated fluorescence intensity is recorded in the FlexStation @ 37° C. for 13 sec followed by the addition of test compound or CP 55,940 (depending on the assay endpoint). Fluorescence intensity is recorded for an additional 47 sec. The effect of test compound in each well is determined by subtracting the minimum from the maximum fluorescence during the 47-sec recording period."}},
  "note": "“Also recorded” adds a separate entry of the source. Where two headings read alike, the source gives them in different places.",
  "data": [
    {"smiles": "CCCc1ccc(/C=C2\\C=C(CCN3CCOCC3)c3ccccc32)c2ccccc12", "note": "[Compound 9, 4-{2-[(1E)-1-[(4-propylnaphthalen-1-yl)methylidene]-1H-inden-3-yl]ethyl} morpholine]", "values": [
      {"measurement": "Ki", "setting": "[1]", "value": 1, "unit": "nM"},
      {"measurement": "effect on SNE-induced mechanical allodynia (ipsilateral hindpaw withdrawal thresholds)", "setting": "[2]; 0.3 mg/kg, systemic injection", "value": "large, reversible increases"},
      {"measurement": "SNE Neuropath Assay-% return to pre-drug (0.3 mg/kg) contralateal threshold at 2-3 h", "setting": "[2]; 0.3 mg/kg, 2-3 h", "value": 110, "unit": "%"},
      {"measurement": "effect on contralateral hindpaw withdrawal thresholds", "setting": "[2]; 0.3 mg/kg, hindpaw contralateral to SNE", "value": "small, but significant increases"},
      {"measurement": "effect on SNE-induced mechanical allodynia", "setting": "[2]; 0.6 mg/kg", "value": "Suppression of SNE-induced mechanical allodynia"},
      {"measurement": "suppression of neuropathy symptoms after oral administration", "setting": "[2]; 3 mg/kg, gavage", "value": "effective in suppressing neuropathy symptoms"},
      {"measurement": "anti-allodynic effects at the 24 hr time point after oral administration", "setting": "[2]; 3 mg/kg, gavage, 24 hr", "value": "potent anti-allodynic effects"},
      {"measurement": "effect in the hypothermia assay", "setting": "[3]; 0.3 mg/kg, intraperitoneal", "value": "no effect"},
      {"measurement": "Hypothermia % change from predrug (0.3 mg/kg) at 2-3 hr", "setting": "[3]; 2-3 hr", "value": 0, "unit": "%"},
      {"measurement": "effect in the tail-flick assay", "setting": "[4]", "value": "small effect"},
      {"measurement": "Ki", "setting": "[5]", "value": 1, "unit": "nM"},
      {"measurement": "Ki", "setting": "[5]; read-out: CB1R binding affinity (Ki)", "value": 1.18, "unit": "nM"},
      {"measurement": "effect on CFA-induced mechanical allodynia", "setting": "[6]", "value": "small but significant relief"},
      {"measurement": "penetration into the CNS after systemic administration", "setting": "[7]; plasma, brain and CSF samples", "value": "minimal penetration"},
      {"measurement": "Kp", "setting": "[7]; rat, CSF and plasma, intraperitoneal, 0.3 mg/kg, i.p., ~75 min after administration, mean±SEM, n=3 rats", "value": "0.001 ± 0.0005"},
      {"measurement": "Kp at 1.25 h", "setting": "[7]; rat, brain and plasma, ip, 0.3 mg/kg, i.p., ~75 min after administration, mean±SEM, n=3 rats", "value": "0.182 ± 0.043"},
      {"measurement": "effect in the catalepsy assay", "setting": "[8]; 0.3 mg/kg, intraperitoneal, listed as 13339-145-35", "value": "no effect; also recorded: complete lack of effects"},
      {"measurement": "Catalepsy % change from pre-drug (0.3 mg/kg) at 1-3 hrs", "setting": "[8]; 1-3 hrs", "value": 0, "unit": "%"},
      {"measurement": "Emax", "setting": "[9]", "value": 108, "unit": "%"}
    ]}
  ]
}
